# Assay results from article PMC10111423, “Antimalarial Imidazopyridines Incorporating an Intramolecular Hydrogen Bonding Motif: Medicinal Chemistry and Mechanistic Studies” (ACS Infectious Diseases, 2023).
# Entries after “also recorded” stand apart in the source; their conditions may differ.
# Experiments:
# P. falciparum parasites = assay: Cellular heme fractionation (heme speciation) assay; assay type: cell-based, Plasmodium falciparum
# Procedure: At this juncture, it is noteworthy that a true hemozoin inhibitor causes a dose-dependent increase in “free” heme and a corresponding decrease in hemozoin. page 23: Table S2: Concentrations of fluorescent dyes used for confocal imaging of P. falciparum with respective excitation lasers and emission filter settings. Dye Concentration Excitation Laser Emission filter DRAQ 5 500 nM 580 nm 600-630 nm LysoTracker 100 nM 561 nm 575-630 nm Nile Red 100 nM 561 nm 575-630 nm ER-Tracker 100 nM 561 nm 575-630 nm MitoTracker 100 nM 561 nm 650-710 nm 1.3-NBD 50 nM 420 nm 500-550 nm 3.14-NBD 75 nM 420 nm 500-550 nm Heme Fractionation Assay […] The heme fractionation assay was performed according to the methods previously described.9 After the IC50 of the target compounds was determined, a counting plate was prepared by adding 10 μL of the isolated washed trophozoites to the corresponding wells of a flat-bottomed 96-well plate. […] The hemocytometer determined cell counts for these six samples were statistically compared to the cell counts determined by flow cytometry to test for agreement. 10 μL of cells from the counting plate were loaded onto a bright-lined hemocytometer, and five large squares were counted after 10 minutes of settling. The concentration of cells in each well of the plate was determined using equation 1: CH 1⁄4 […] […] Typically, 10,000 events were counted for each sample. […]
# [1] = Metabolite identification in mouse liver microsomes; assay type: in vitro ADME; conditions: NADPH-dependent
# Procedure: started by addition of NADPH (1 mM) as cofactor and shaken for 30 minutes at 37 °C. The
# reactions were then quenched by adding 300 µL of ice-cold acetonitrile containing internal
# standard (carbamazepine, 0.0236 µg/mL) and centrifuged. The supernatant was transferred to
# a fresh 96-well plate and analysed by LC-MS/MS (Agilent Rapid Resolution HPLC, AB
# SCIEX 4500 MS). The relative loss of parent compound over time was monitored and plots
# (concentration vs. time) were prepared per compound to determine the first order rate constant
# for compound depletion. This was in turn used to calculate half-life, in vitro intrinsic clearance
# and in vivo hepatic extraction ratio.6
# Metabolite Identification Studies
# The test compound (10 µM) was incubated at 37 °C in a solution containing 1 mg/ml
# microsomes (MLM, male mouse CD1, Lot No. 1510043, Xenotech), magnesium chloride (5
# mM) and NADPH (1 mM) in sodium phosphate buffer (100 mM, pH 7.4) for 60 minutes while
# shaking. The samples were then prepared by ice-cold acetonitrile precipitation, centrifuged,
# and filtered for LC-MS/MS analysis.
# Controls containing all the sample constituents (not incubated), and in which NADPH,
# microsomes or the test compound were individually excluded were also prepared and handled
# similarly to the test sample. Verapamil (10 µM) was incubated concomitantly as a positive
# Fluorescence Live-cell Microscopy […]
compound,measurement,setting,value
"CCN(CCNc1cc2[nH]c(-c3cccc(C(F)(F)F)c3)nc2cn1)Cc1ccc(Cl)cc1O [Compound 14, 5-Chloro-2-((ethyl(2-((2-(3-(trifluoromethyl)phenyl)-1H-imidazo[4,5-c]pyridin-6-yl)amino)ethyl)amino)methyl)phenol]",Levels of hemozoin (Hz) Fe,P. falciparum parasites; between 0.5–2× IC50,significant decrease; also recorded: decreased
same,"Levels of ""free"" heme Fe",P. falciparum parasites; increasing concentrations of compound,no statistically significant change; also recorded: no statistically significant effect
same,Number of metabolites identified,[1],4
